Assay results from US6362369B1, “Phthalic acid diamide derivatives fluorine-containing aniline compounds as starting material, agricultural and horticultural insecticides, and a method for application of the insecticides” (Nihon Nohyaku Co., Ltd., priority 1997, dated 2002).

Legend:
Assay type in all cases: in vivo
[1] = test system: diamondback moth (Plutella xylostella); test: Insecticidal effect on diamondback moth (Test Example 1); conditions: for Insecticidal effect, Test Example 1 / Insecticidal effect (Test Example 1), judged from mortality: diamondback moth; for Insecticidal effect on diamondback moth (Test Example 1), judged grade: mortality judged according to the criterion shown in Test Example 1; for Insecticidal effect (Test Example 1), judged from mortality: judged by the criterion of Test Example 1
Summary of the method: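 Chinese cabbage seedlings carrying eggs laid by released adult moths were immersed in treatment, air-dried and held at 25° C. Hatched insects were counted six days after immersion, and mortality was calculated and scored against a fixed criterion. Three replicate groups of 10 insects were used.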

[2] = test system: common cutworm (Spodoptera Litura); test: Insecticidal effect on common cutworm (Test Example 2); conditions: 500 ppm, 25° C.; for Insecticidal effect, Test Example 2: cabbage leaf immersed; for Insecticidal effect, Test Example 2 / Insecticidal effect on common cutworm (Test Example 2), judged grade: eight days after inoculation; for Insecticidal effect on common cutworm (Test Example 2), judged grade / Insecticidal effect (Test Example 2), judged from mortality: cabbage leaf dip; for Insecticidal effect on common cutworm (Test Example 2), judged grade: second-instar larvae; for Insecticidal effect (Test Example 2), judged from mortality: 8 days after inoculation
Summary of the method: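 Mortality is the read-out: larvae are counted as dead or alive on day 8 and the percentage is graded by an effect criterion. Second-instar larvae are kept with the air-dried treated material in a sealed dish at 25° C, in triplicate groups of ten.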

[3] = test system: rice leafroller (Cnaphalocrocis medinalis); test: Insecticidal effect on rice leafroller (Test Example 3); conditions: 500 ppm, 25° C., humidity 70%; for Insecticidal effect, Test Example 3: rice lamina immersed; for Insecticidal effect, Test Example 3 / Insecticidal effect on rice leafroller (Test Example 3), judged grade: four days after inoculation; for Insecticidal effect on rice leafroller (Test Example 3), judged grade / Insecticidal effect (Test Example 3), judged from mortality: rice lamina dip; for Insecticidal effect on rice leafroller (Test Example 3), judged grade: third-instar larvae; for Insecticidal effect (Test Example 3), judged from mortality: 4 days after inoculation
Summary of the method: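 Groups of 10 third-instar larvae, in triplicate, are placed on air-dried lamina resting on wet filter paper. Incubation runs four days at 25° C with 70% humidity before survivors and dead are tallied.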

[4] = mortality judged by criterion of Test Example 1
[5] = common cutworm second-instar larvae
[6] = rice leafroller third-instar larvae
[7] = judged by the mortality criterion of Test Example 1
[8] = second-instar larvae of common cutworm
[9] = third-instar larvae of rice leafroller

Question: With `Cc1cc(C(F)(F)C(F)(F)F)ccc1NC(=O)c1cccc(Cl)c1C(=O)NC(C)c1ccc(Cl)cc1` (stereo not drawn) [compound 1366] as the molecule, how does the “Insecticidal effect, Test Example 1” value [1, 4] read?
Answer: A (100)

Question: What about the “Insecticidal effect, Test Example 2” value [2, 5] of the same molecule?
Answer: A (100)

Question: What about the “Insecticidal effect, Test Example 3” value [3, 6] of the same molecule?
Answer: A (100)

Question: With `Cc1cc(C(F)(F)C(F)(F)F)ccc1NC(=O)c1cccc(Cl)c1C(=O)NC(C)(C)CO` [compound 1317] as the molecule, how does the “Insecticidal effect, Test Example 1” value [1, 4] read?
Answer: A (100)

Question: And the “Insecticidal effect, Test Example 2” value [2, 5]?
Answer: C (89-80)

Question: What about the “Insecticidal effect, Test Example 3” value [3, 6] of the same molecule?
Answer: A (100)

Question: Which results are given for `CC(C)NC(=O)c1c(Cl)cccc1C(=O)Nc1ccc([S+]([O-])C(F)(F)F)cc1` (stereo not drawn) [compound 1001]?
Answer: Insecticidal effect, Test Example 1 [1, 4]: A (100); Insecticidal effect, Test Example 2 [2, 5]: A (100); Insecticidal effect, Test Example 3 [3, 6]: A (100)

Question: Which “Insecticidal effect on diamondback moth (Test Example 1), judged grade” value (“Insecticidal effect on diamondback moth” for short) [1] does the source give for `Cc1cc(Sc2ccc(Cl)cc2)ccc1NC(=O)c1cccc(F)c1C(=O)NC(C)C` [compound 522] here?
Answer: A (100)

Question: What about the “Insecticidal effect on common cutworm (Test Example 2), judged grade” value (from here on “Insecticidal effect on common cutworm”) [2] of the same molecule?
Answer: D (79-50)

Question: And the “Insecticidal effect on rice leafroller (Test Example 3), judged grade” value (“Insecticidal effect on rice leafroller” below) [3]?
Answer: A (100)

Question: What does the source list for `Cc1cc(C(F)(F)C(F)(F)F)ccc1NC(=O)c1ccc(F)c(Cl)c1C(=O)NC(C)C` [compound 1228]?
Answer: Insecticidal effect, Test Example 1 [1, 4]: A (100); Insecticidal effect, Test Example 2 [2, 5]: A (100); Insecticidal effect, Test Example 3 [3, 6]: A (100)

Question: What does the source list for `Cc1cc(Oc2ncc(C(F)(F)F)cc2Cl)ccc1NC(=O)c1cccc(Cl)c1C(=O)NC(C)C` [compound 159]?
Answer: Insecticidal effect, Test Example 1 [1, 7]: A (100); Insecticidal effect, Test Example 2 [2, 8]: A (100); Insecticidal effect, Test Example 3 [3, 9]: A (100)

Question: With `Cc1cc(Oc2cccc(C(F)(F)F)c2)ccc1NC(=O)c1cccc(Br)c1C(=O)NC(C)C` [compound 297] as the molecule, how does the “Insecticidal effect, Test Example 1” value [1, 7] read?
Answer: A (100)

Question: What about the “Insecticidal effect, Test Example 2” value [2, 8] of the same molecule?
Answer: A (100)

Question: What about the “Insecticidal effect, Test Example 3” value [3, 9] of the same molecule?
Answer: B (99-90)

Question: With `Cc1cc(I)ccc1NC(=O)c1cccc(Br)c1C(=O)NC(C)C` [compound 274] as the molecule, how does the “Insecticidal effect, Test Example 1” value [1, 7] read?
Answer: A (100)

Question: And the “Insecticidal effect, Test Example 2” value [2, 8]?
Answer: A (100)

Question: What about the “Insecticidal effect, Test Example 3” value [3, 9] of the same molecule?
Answer: A (100)

Question: `CC(C)(C)NC(=O)c1c(I)cccc1C(=O)Nc1ccc(C(F)(F)C(F)(F)F)cc1Br` [compound 1562] was tested. Which “Insecticidal effect (Test Example 1), judged from mortality” value [1] did it give?
Answer: A (100)

Question: And the “Insecticidal effect (Test Example 2), judged from mortality” value [2, 8]?
Answer: A (100)

Question: What about the “Insecticidal effect (Test Example 3), judged from mortality” value [3, 9] of the same molecule?
Answer: A (100)

Question: Which results are given for `Cc1cc(C(F)(F)C(F)(F)F)ccc1NC(=O)c1cccc(Cl)c1C(=O)NC(C)(C)C#Cc1ccc(Cl)cc1Cl` [compound 1571]?
Answer: Insecticidal effect (Test Example 1), judged from mortality [1]: A (100); Insecticidal effect (Test Example 2), judged from mortality [2, 8]: A (100); Insecticidal effect (Test Example 3), judged from mortality [3, 9]: A (100)

Question: How did the “Insecticidal effect (Test Example 1), judged from mortality” value [1] turn out when `CC(C)(C)NC(=O)c1c(I)cccc1C(=O)Nc1ccc(C(F)(C(F)(F)F)C(F)(F)F)cc1Cl` [compound 1723] was run?
Answer: A (100)

Question: What about the “Insecticidal effect (Test Example 2), judged from mortality” value [2, 8] of the same molecule?
Answer: A (100)

Question: What about the “Insecticidal effect (Test Example 3), judged from mortality” value [3, 9] of the same molecule?
Answer: A (100)

Question: With `Cc1cc(C(F)(F)C(F)(F)F)ccc1NC(=O)c1cccc(Cl)c1C(=O)NCc1ccccn1` [compound 1355] as the molecule, how does the “Insecticidal effect, Test Example 1” value [1, 4] read?
Answer: A (100)

Question: And the “Insecticidal effect, Test Example 2” value [2, 5]?
Answer: A (100)

Question: And the “Insecticidal effect, Test Example 3” value [3, 6]?
Answer: A (100)

Question: With `Cc1cc(OC(F)(F)Br)ccc1NC(=O)c1c(I)cccc1C(=O)NC(C)C` [compound 452] as the molecule, how does the “Insecticidal effect on diamondback moth” value [1] read?
Answer: A (100)

Question: And the “Insecticidal effect on common cutworm” value [2]?
Answer: A (100)

Question: And the “Insecticidal effect on rice leafroller” value [3]?
Answer: A (100)

Question: How did the “Insecticidal effect, Test Example 1” value [1, 4] turn out when `CCN(CC)C(=O)c1c(C(=O)Nc2ccc(C(F)(C(F)(F)F)C(F)(F)F)cc2C)ccc(F)c1Cl` [compound 1264] was run?
Answer: A (100)

Question: What about the “Insecticidal effect, Test Example 2” value [2, 5] of the same molecule?
Answer: A (100)

Question: What about the “Insecticidal effect, Test Example 3” value [3, 6] of the same molecule?
Answer: A (100)

Question: For `Cc1cc(C(F)(F)C(F)(F)F)ccc1NC(=O)c1cccc(Cl)c1C(=O)NC(C)(C)C#Cc1ccccn1` [compound 1587], which “Insecticidal effect (Test Example 1), judged from mortality” value [1] is on record?
Answer: A (100)

Question: And the “Insecticidal effect (Test Example 2), judged from mortality” value [2, 8]?
Answer: A (100)

Question: What about the “Insecticidal effect (Test Example 3), judged from mortality” value [3, 9] of the same molecule?
Answer: A (100)

Question: How did the “Insecticidal effect, Test Example 1” value [1, 7] turn out when `Cc1cc(C(F)(F)C(F)(F)C(F)(F)C(F)(F)F)ccc1NC(=O)c1cccc(I)c1C(=O)NC(C)C` [compound 375] was run?
Answer: A (100)

Question: What about the “Insecticidal effect, Test Example 2” value [2, 8] of the same molecule?
Answer: A (100)

Question: What about the “Insecticidal effect, Test Example 3” value [3, 9] of the same molecule?
Answer: A (100)

Question: Which “Insecticidal effect (Test Example 1), judged from mortality” value [1] does the source give for `Cc1cc(NC(=O)c2cccc(I)c2C(=O)NC(C)C)ccc1C(F)(F)C(F)(F)F` [compound 1563] here?
Answer: A (100)

Question: And the “Insecticidal effect (Test Example 2), judged from mortality” value [2, 8]?
Answer: A (100)

Question: And the “Insecticidal effect (Test Example 3), judged from mortality” value [3, 9]?
Answer: A (100)

Question: For `CC(C)(C)NC(=O)c1c(Cl)cccc1C(=O)Nc1ccc(C(F)(F)C(F)(F)F)cc1F` [compound 1448], which “Insecticidal effect (Test Example 1), judged from mortality” value [1] is on record?
Answer: A (100)

Question: What about the “Insecticidal effect (Test Example 2), judged from mortality” value [2, 8] of the same molecule?
Answer: A (100)

Question: What about the “Insecticidal effect (Test Example 3), judged from mortality” value [3, 9] of the same molecule?
Answer: A (100)

Question: Which results are given for `Cc1cc(C(F)(C(F)(F)F)C(F)(F)F)ccc1NC(=O)c1cccc(I)c1C(=O)NC(C)(C)C` [compound 1039]?
Answer: Insecticidal effect, Test Example 1 [1, 4]: A (100); Insecticidal effect, Test Example 2 [2, 5]: A (100); Insecticidal effect, Test Example 3 [3, 6]: A (100)

Question: What does the source list for `CC(C)NC(=O)c1c(Cl)cccc1C(=O)Nc1ccc(SC(F)(F)C(F)(F)Br)cc1` [compound 103]?
Answer: Insecticidal effect, Test Example 1 [1, 7]: A (100); Insecticidal effect, Test Example 2 [2, 8]: C (89-80); Insecticidal effect, Test Example 3 [3, 9]: A (100)

Question: How did the “Insecticidal effect (Test Example 1), judged from mortality” value [1] turn out when `CON=C(C)c1ccc(NC(=O)c2cccc(I)c2C(=O)NC(C)C)cc1` [compound 1737] was run?
Answer: A (100)

Question: And the “Insecticidal effect (Test Example 2), judged from mortality” value [2, 8]?
Answer: C (89-80)

Question: And the “Insecticidal effect (Test Example 3), judged from mortality” value [3, 9]?
Answer: A (100)

Question: For `Cc1cc(C(F)(F)C(F)(F)F)ccc1NC(=O)c1cccc(I)c1C(=O)N(C)C` [compound 1068], which “Insecticidal effect, Test Example 1” value [1, 4] is on record?
Answer: A (100)

Question: And the “Insecticidal effect, Test Example 2” value [2, 5]?
Answer: A (100)

Question: What about the “Insecticidal effect, Test Example 3” value [3, 6] of the same molecule?
Answer: A (100)

Question: `Cc1cc(C(F)(F)C(F)(F)C(F)(F)F)ccc1NC(=O)c1cc(F)ccc1C(=O)NC(C)C` [compound 533] was tested. Which “Insecticidal effect on diamondback moth” value [1] did it give?
Answer: A (100)

Question: What about the “Insecticidal effect on common cutworm” value [2] of the same molecule?
Answer: A (100)

Question: What about the “Insecticidal effect on rice leafroller” value [3] of the same molecule?
Answer: A (100)

Question: What does the source list for `Cc1cc(Oc2cccc(C(F)(F)F)c2)ccc1NC(=O)c1cccc(F)c1C(=O)NC(C)C` [compound 519]?
Answer: Insecticidal effect on diamondback moth (Test Example 1), judged grade [1]: A (100); Insecticidal effect on common cutworm (Test Example 2), judged grade [2]: A (100); Insecticidal effect on rice leafroller (Test Example 3), judged grade [3]: A (100)

Question: Which results are given for `Cc1cc(Sc2ccc(Cl)cc2)ccc1NC(=O)c1cccc([N+](=O)[O-])c1C(=O)NC(C)C` [compound 727]?
Answer: Insecticidal effect on diamondback moth (Test Example 1), judged grade [1]: A (100); Insecticidal effect on common cutworm (Test Example 2), judged grade [2]: B (99-90); Insecticidal effect on rice leafroller (Test Example 3), judged grade [3]: A (100)

Question: What does the source list for `Cc1cc(C(F)(F)C(F)(F)F)ccc1NC(=O)c1cccc(Cl)c1C(=O)NC(C)(C)C(Br)CBr` (racemic) [compound 1603]?
Answer: Insecticidal effect (Test Example 1), judged from mortality [1]: A (100); Insecticidal effect (Test Example 2), judged from mortality [2, 8]: A (100); Insecticidal effect (Test Example 3), judged from mortality [3, 9]: A (100)

Question: For `Cc1cc(C(F)(F)C(F)(F)F)ccc1NC(=O)c1ccccc1C(=O)NC(C)(C)C` [compound 931], which “Insecticidal effect on diamondback moth” value [1] is on record?
Answer: A (100)

Question: What about the “Insecticidal effect on common cutworm” value [2] of the same molecule?
Answer: A (100)

Question: And the “Insecticidal effect on rice leafroller” value [3]?
Answer: A (100)

Question: With `Cc1cc(C(F)(F)C(F)(F)F)ccc1NC(=O)c1cccc([S+]([O-])C(F)(F)F)c1C(=O)NC(C)C` (stereo not drawn) [compound 1803] as the molecule, how does the “Insecticidal effect (Test Example 1), judged from mortality” value [1] read?
Answer: A (100)

Question: What about the “Insecticidal effect (Test Example 2), judged from mortality” value [2, 8] of the same molecule?
Answer: A (100)

Question: What about the “Insecticidal effect (Test Example 3), judged from mortality” value [3, 9] of the same molecule?
Answer: A (100)
